Tests used:
[1] = system: T1, APS reductase (Desulfotomaculum sp. TC3); assay: AMP-dependent ferricyanide reduction at […] nm, Lineweaver-Burk; format: cell-based; settings: reverse direction, EDTA, Tris-HCl pH 7.5, 27 °C, varied substrate sulfite (methods)
T1 construct: gene aprA; native enzyme in crude cell-free extract, not purified; with Adenylylsulfate reductase subunit beta

[2] = system: T2, APS reductase (Desulfomicrobium sp. TC4); assay: as above; format: cell-based; settings: reverse direction, EDTA, Tris-HCl pH 7.5, 27 °C, varied substrate sulfite (methods)
T2 construct: gene aprA; native enzyme in crude cell-free extract, not purified; with Adenylylsulfate reductase subunit beta

[3] = system: T3, sulfite reductase (D. vulgaris DSM644); assay: NADH oxidation at […] nm, Lineweaver-Burk; format: biochemical, Nitratidesulfovibrio vulgaris; settings: 0.2 mmol/L NADH, EDTA; Tris-HCl pH 7.5 (started with HCl); 27 °C
T3 construct: gene dsrA; native enzyme in crude cell-free extract, not purified; NADH-oxidation read-out

[4] = system: T4, sulfite reductase (Desulfovibrio sp. 10); assay: NADH oxidation at […] nm, Lineweaver-Burk; format: biochemical; settings: 0.2 mmol/L NADH, EDTA; Tris-HCl pH 7.5 (started with HCl); 27 °C
T4 construct: gene dsrA; native enzyme in crude cell-free extract, not purified; NADH-oxidation read-out

[5] = biological target: T5, sulfite reductase (D. orale Rod-9) (Desulfomicrobium orale, UniProt A0A109W607+A0A109W618); assay: NADH oxidation at […] nm, Lineweaver-Burk; format: cell-based; settings: 0.2 mmol/L NADH, EDTA; Tris-HCl pH 8.0 (started with HCl); 35 °C
T5 construct: gene AXF15_07380; native enzyme in crude cell-free extract, not purified; NADH-oxidation read-out

[6] = system: T6, sulfite reductase (Desulfotomaculum sp. TC3); assay: NADH oxidation at […] nm, Lineweaver-Burk; format: biochemical; settings: 0.2 mmol/L NADH, EDTA; Tris-HCl pH 7.5 (started with HCl); 27 °C
T6 construct: gene dsrA; native enzyme in crude cell-free extract, not purified; NADH-oxidation read-out

[7] = system: T7, sulfite reductase (D. desulfuricans DSM642); assay: NADH oxidation at […] nm, Lineweaver-Burk; format: cell-based, Desulfovibrio desulfuricans; settings: 0.2 mmol/L NADH, EDTA; Tris-HCl pH 7.5 (started with HCl); 27 °C
T7 construct: gene dsrA; native enzyme in crude cell-free extract, not purified; NADH-oxidation read-out

[8] = system: T8, APS reductase (Desulfovibrio sp. TC2); assay: AMP-dependent ferricyanide reduction at […] nm, Lineweaver-Burk; format: cell-based; settings: reverse direction, EDTA, Tris-HCl pH 7.5, 27 °C, varied substrate sulfite (methods)
T8 construct: gene aprA; native enzyme in crude cell-free extract, not purified; with Adenylylsulfate reductase subunit beta

[9] = biological target: T9, APS reductase (D. desulfuricans DSM642) (Desulfovibrio desulfuricans, UniProt Q9L767); assay: as above; format: cell-based; settings: reverse direction, EDTA, Tris-HCl pH 7.5, 27 °C, varied substrate sulfite (methods)
T9 construct: gene aprB; native enzyme in crude cell-free extract, not purified; with Adenylylsulfate reductase subunit beta
T9 sequence (Q9L767 1-662): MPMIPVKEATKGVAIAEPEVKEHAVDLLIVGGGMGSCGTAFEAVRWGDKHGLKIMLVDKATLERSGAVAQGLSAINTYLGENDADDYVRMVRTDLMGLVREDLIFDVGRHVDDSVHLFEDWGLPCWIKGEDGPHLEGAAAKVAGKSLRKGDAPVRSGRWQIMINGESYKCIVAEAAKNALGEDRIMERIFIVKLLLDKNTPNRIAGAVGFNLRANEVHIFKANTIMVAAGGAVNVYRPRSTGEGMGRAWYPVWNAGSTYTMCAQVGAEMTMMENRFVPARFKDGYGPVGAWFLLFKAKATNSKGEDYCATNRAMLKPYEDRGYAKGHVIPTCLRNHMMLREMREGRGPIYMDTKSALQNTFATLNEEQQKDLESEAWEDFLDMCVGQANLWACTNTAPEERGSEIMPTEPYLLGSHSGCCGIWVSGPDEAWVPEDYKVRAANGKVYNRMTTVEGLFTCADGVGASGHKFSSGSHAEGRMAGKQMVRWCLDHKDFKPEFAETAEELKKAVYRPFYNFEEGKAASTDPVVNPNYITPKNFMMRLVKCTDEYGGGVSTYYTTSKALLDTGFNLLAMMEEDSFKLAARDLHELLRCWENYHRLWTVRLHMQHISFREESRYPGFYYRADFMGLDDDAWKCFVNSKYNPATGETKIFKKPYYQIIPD
T9 sequence (Q9L768 1-162 partner): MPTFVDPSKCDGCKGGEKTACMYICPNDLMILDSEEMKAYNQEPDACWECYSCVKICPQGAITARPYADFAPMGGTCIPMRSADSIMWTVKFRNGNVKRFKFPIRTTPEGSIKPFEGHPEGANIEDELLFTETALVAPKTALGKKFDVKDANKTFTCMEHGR

[10] = system: T10, sulfite reductase (Desulfomicrobium sp. TC4); assay: NADH oxidation at […] nm, Lineweaver-Burk; format: cell-based; settings: 0.2 mmol/L NADH, EDTA; Tris-HCl pH 7.5 (started with HCl); 27 °C
T10 construct: gene dsrA; native enzyme in crude cell-free extract, not purified; NADH-oxidation read-out

[11] = system: T11, sulfite reductase (D. piger Vib-7); assay: NADH oxidation at […] nm, Lineweaver-Burk; format: cell-based, Desulfovibrio piger; settings: 0.2 mmol/L NADH, EDTA; Tris-HCl pH 8.0 (started with HCl); 35 °C
T11 construct: gene dsrA; native enzyme in crude cell-free extract, not purified; NADH-oxidation read-out

[12] = system: T12, sulfite reductase (Desulfovibrio sp. TC2); assay: NADH oxidation at […] nm, Lineweaver-Burk; format: cell-based; settings: 0.2 mmol/L NADH, EDTA; Tris-HCl pH 7.5 (started with HCl); 27 °C
T12 construct: gene dsrA; native enzyme in crude cell-free extract, not purified; NADH-oxidation read-out

T5 sequence (A0A109W618 1-437): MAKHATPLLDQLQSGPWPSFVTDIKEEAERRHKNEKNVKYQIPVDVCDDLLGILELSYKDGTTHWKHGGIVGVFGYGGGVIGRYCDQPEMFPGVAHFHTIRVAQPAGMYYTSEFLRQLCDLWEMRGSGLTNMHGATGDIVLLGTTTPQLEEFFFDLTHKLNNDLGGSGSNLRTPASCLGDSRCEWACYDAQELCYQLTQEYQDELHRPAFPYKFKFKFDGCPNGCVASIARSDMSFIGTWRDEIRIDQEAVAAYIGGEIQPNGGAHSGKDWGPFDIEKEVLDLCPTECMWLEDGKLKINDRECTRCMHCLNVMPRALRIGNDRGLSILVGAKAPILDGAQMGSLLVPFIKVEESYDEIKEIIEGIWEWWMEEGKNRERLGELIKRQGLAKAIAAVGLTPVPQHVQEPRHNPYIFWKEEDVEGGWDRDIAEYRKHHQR
T5 sequence (A0A109W607 1-386): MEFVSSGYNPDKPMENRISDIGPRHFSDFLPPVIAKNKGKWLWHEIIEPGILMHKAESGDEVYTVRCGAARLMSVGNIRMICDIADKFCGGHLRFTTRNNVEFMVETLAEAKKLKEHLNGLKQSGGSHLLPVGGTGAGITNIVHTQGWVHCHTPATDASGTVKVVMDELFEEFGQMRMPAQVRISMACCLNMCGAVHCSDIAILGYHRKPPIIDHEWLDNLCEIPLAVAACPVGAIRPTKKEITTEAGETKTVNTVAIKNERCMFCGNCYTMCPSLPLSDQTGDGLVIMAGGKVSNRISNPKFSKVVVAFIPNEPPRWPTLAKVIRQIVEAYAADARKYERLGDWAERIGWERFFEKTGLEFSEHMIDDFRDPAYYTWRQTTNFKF

## sulfite
[1]
  Km: 1.49 mM
[2]
  Km: 1.1 mM
[3]
  Km: 31.7 mM
[4]
  Km: 46.7 mM
[5]
  Km: 3.86 mM
[6]
  Km: 46.2 mM
[7]
  Km: 9.97 mM
[8]
  Km: 1.59 mM
[9]
  Km: 2.12 mM
[10]
  Km: 19.4 mM
[11]
  Km: 3.53 mM
[12]
  Km: 26.1 mM
